Legend:
[1] = system: PI3Kβ; test: PI3K isoform selectivity, β versus δ; assay type: biochemical
[2] = Method: During dose escalation, patients received YY-20394 tablets q.d. at dosages of 20, 40, 80, 140 or 200 mg. The maximum tolerated dose (MTD), dose escalation phase and dose-limiting toxicity (DLT) as well as hematological toxicity classifications are described in Additional file 4. The primary endpoints were safety, tolerability and the MTD of YY-20394. Secondary endpoints were PK parameters and efficacy. Response criteria followed the revised International Research Working Group (IRWG) for non-Hodgkin lymphomas (NHL), and the International Working Group on Chronic Lymphocytic Leukemia (IWCLL) criteria for CLL [8]. Efficacy determinations were the objective response rate (ORR), disease control rate (DCR), complete remission (CR), partial remission (PR), stable disease (SD), progressive disease (PD) and progression-free survival (PFS).
The safety evaluation of YY-20394 included adverse events (AEs) and serious AEs (SAEs) by standard categorizations.
The maximum tolerated dose (MTD) was established during the dose escalation phase, based on dose-limiting toxicity (DLT) developments, which were defined as: death; grade IV hematological toxicity with a duration of 1 week; or non-hematological toxicities ≥ grade III. […] At the end of the tolerance test, the dose extension test was conducted, in which YY-20394 was administered for a period of 28 days per cycle until the disease progressed or toxicity developed beyond tolerance. Patients visited the clinic once a week during treatment cycle 1 and every 2 weeks during cycle 2 and once a month thereafter.

[3] = drug-related AE, n (%) of 25 evaluable patients

In the case of `COc1ncc(-c2nc(N3CCOCC3)nc3c(CN4CCC(C(C)(C)O)CC4)cc(F)cc23)cc1NS(C)(=O)=O` [YY-20394, N-[5-[6-fluoro-8-[[4-(1-hydroxy-1-methylethyl)-1-piperidinyl]methyl]-2-(4-morpholinyl)-4-quinazolinyl]-2-methoxy-3-pyridinyl]-methanesulfonamide], the “Ratio of IC50 β/δ” value [1] is reported as 30, the “maximum tolerated dose (MTD)” value ([2]; 20–200 mg daily) is reported as “not reached” and the “Upper respiratory tract infection, number of patients with grade I/II at > 5% incidence” value [2, 3] is reported as 4 (16.0). The “Upper respiratory tract infection, number of patients with ≥ grade III” value [2, 3] was 1 (4.0), the “Anemia, number of patients with grade I/II at > 5% incidence” value ([2]; human, in vivo) was 3 (12.0) and the “Anemia, number of patients with ≥ grade III” value ([2]; human, in vivo) was 0. The “Cough, number of patients with grade I/II at > 5% incidence” value ([2]; human, in vivo) was 2 (8.0), the “Cough, number of patients with ≥ grade III” value ([2]; human, in vivo) was 0 and the “Diarrhea, number of patients with grade I/II at > 5% incidence” value ([2]; human, in vivo) was 2 (8.0). The “Diarrhea, number of patients with ≥ grade III” value ([2]; human, in vivo) was 0, the “Elevated alanine aminotransferase, number of patients with grade I/II at > 5% incidence” value ([2]; human, in vivo) was 3 (12.0) and the “Elevated alanine aminotransferase, number of patients with ≥ grade III” value ([2]; human, in vivo) was 0. For the same compound, the “Elevated aspartate aminotransferase, number of patients with grade I/II at > 5% incidence” value ([2]; human, in vivo) was 2 (8.0), the “Elevated aspartate aminotransferase, number of patients with ≥ grade III” value ([2]; human, in vivo) was 0 and the “Elevated bilirubin, number of patients with grade I/II at > 5% incidence” value ([2]; human, in vivo) was 2 (8.0). The “Elevated bilirubin, number of patients with ≥ grade III” value ([2]; human, in vivo) was 0, the “Elevated serum alkaline phosphatase, number of patients with grade I/II at > 5% incidence” value ([2]; human, in vivo) was 3 (12.0) and the “Elevated serum alkaline phosphatase, number of patients with ≥ grade III” value ([2]; human, in vivo) was 0. For the same compound, the “Elevated serum lactate dehydrogenase, number of patients with grade I/II at > 5% incidence” value ([2]; human, in vivo) was 11 (44.0), the “Elevated serum lactate dehydrogenase, number of patients with ≥ grade III” value ([2]; human, in vivo) was 1 (4.0) and the “Elevated serum α-hydroxybutyrate dehydrogenase, number of patients with grade I/II at > 5% incidence” value ([2]; human, in vivo) was 6 (24.0). For the same compound, the “Elevated serum α-hydroxybutyrate dehydrogenase, number of patients with ≥ grade III” value ([2]; human, in vivo) was 1 (4.0), the “Elevated γ-glutamyltransferase, number of patients with grade I/II at > 5% incidence” value ([2]; human, in vivo) was 2 (8.0) and the “Elevated γ-glutamyltransferase, number of patients with ≥ grade III” value ([2]; human, in vivo) was 0. The “Fatigue, number of patients with grade I/II at > 5% incidence” value ([2]; human, in vivo) was 2 (8.0), the “Fatigue, number of patients with ≥ grade III” value ([2]; human, in vivo) was 0 and the “Fever, number of patients with grade I/II at > 5% incidence” value ([2]; human, in vivo) was 2 (8.0). The “Fever, number of patients with ≥ grade III” value ([2]; human, in vivo) was 0, the “Hyperbilirubinemia, number of patients with grade I/II at > 5% incidence” value ([2]; human, in vivo) was 3 (12.0) and the “Hyperbilirubinemia, number of patients with ≥ grade III” value ([2]; human, in vivo) was 0. The “Hyperuricemia, number of patients with grade I/II at > 5% incidence” value ([2]; human, in vivo) was 5 (20.0), the “Hyperuricemia, number of patients with ≥ grade III” value ([2]; human, in vivo) was 3 (12.0) and the “Leukocytosis, number of patients with grade I/II at > 5% incidence” value ([2]; human, in vivo) was 2 (8.0). For the same compound, the “Leukocytosis, number of patients with ≥ grade III” value ([2]; human, in vivo) was 0, the “Leukopenia, number of patients with grade I/II at > 5% incidence” value ([2]; human, in vivo) was 11 (44.0) and the “Leukopenia, number of patients with ≥ grade III” value ([2]; human, in vivo) was 2 (8.0). The “Lymphocythemia, number of patients with grade I/II at > 5% incidence” value ([2]; human, in vivo) was 3 (12.0), the “Lymphocythemia, number of patients with ≥ grade III” value ([2]; human, in vivo) was 2 (8.0) and the “Maculopapule, number of patients with grade I/II at > 5% incidence” value ([2]; human, in vivo) was 2 (8.0). The “Maculopapule, number of patients with ≥ grade III” value ([2]; human, in vivo) was 0, the “Neutropenia, number of patients with grade I/II at > 5% incidence” value ([2]; human, in vivo) was 17 (68.0) and the “Neutropenia, number of patients with ≥ grade III” value ([2]; human, in vivo) was 11 (44.0). The “Oropharyngeal pain, number of patients with grade I/II at > 5% incidence” value ([2]; human, in vivo) was 2 (8.0), the “Oropharyngeal pain, number of patients with ≥ grade III” value ([2]; human, in vivo) was 0 and the “Pneumonia, number of patients with grade I/II at > 5% incidence” value ([2]; human, in vivo) was 4 (16.0). For the same compound, the “Pneumonia, number of patients with ≥ grade III” value ([2]; human, in vivo) was 4 (16.0), the “Pneumonitis, number of patients with grade I/II at > 5% incidence” value ([2]; human, in vivo) was 3 (12.0) and the “Pneumonitis, number of patients with ≥ grade III” value ([2]; human, in vivo) was 2 (8.0). For the same compound, the “Proteinuria, number of patients with grade I/II at > 5% incidence” value ([2]; human, in vivo) was 4 (16.0), the “Proteinuria, number of patients with ≥ grade III” value ([2]; human, in vivo) was 0 and the “Thrombocytopenia, number of patients with grade I/II at > 5% incidence” value ([2]; human, in vivo) was 5 (20.0). The “Thrombocytopenia, number of patients with ≥ grade III” value ([2]; human, in vivo) was 1 (4.0), the “Weight gain, number of patients with grade I/II at > 5% incidence” value ([2]; human, in vivo) was 2 (8.0) and the “Weight gain, number of patients with ≥ grade III” value ([2]; human, in vivo) was 1 (4.0). For the same compound, the “Weight loss, number of patients with grade I/II at > 5% incidence” value ([2]; human, in vivo) was 3 (12.0), the “Weight loss, number of patients with ≥ grade III” value ([2]; human, in vivo) was 0 and the “dose-limiting toxicity (DLT)” value ([2]; human, in vivo) was “no patients experienced DLT”. The “drug-related AE elevated lactate dehydrogenase” value ([2]; human, in vivo) was 44.0%, the “drug-related AE elevated α-hydroxybutyrate dehydrogenase” value ([2]; human, in vivo) was 24.0% and the “drug-related AE hyperuricemia” value ([2]; human, in vivo) was 20.0%. The “drug-related AE leukopenia” value ([2]; human, in vivo) was 44.0%, the “drug-related AE neutropenia” value ([2]; human, in vivo) was 68.0% and the “drug-related AE thrombocytopenia” value ([2]; human, in vivo) was 20.0%. For the same compound, the “drug-related AE ≥ grade III hyperuricemia” value ([2]; human, in vivo) was 12.0%, the “drug-related AE ≥ grade III leukopenia” value ([2]; human, in vivo) was 8.0% and the “drug-related AE ≥ grade III lymphocythemia” value ([2]; human, in vivo) was 8.0%. For the same compound, the “drug-related AE ≥ grade III neutropenia” value ([2]; human, in vivo) was 44.0%, the “drug-related AE ≥ grade III pneumonia” value ([2]; human, in vivo) was 16.0% and the “drug-related AE ≥ grade III pneumonitis” value ([2]; human, in vivo) was 8.0%. For the same compound, the “grade IV hyperuricemia” value ([2]; human, in vivo) was 3 cases, the “grade IV neutropenia” value ([2]; human, in vivo) was 4 and the “grade V AEs” value ([2]; human, in vivo) was “no grade V AEs occurred”. For the same compound, the “incidence of diarrhea, colitis, and hepatotoxicities” value ([2]; human, in vivo) was “very low”, the “number of ≥ grade III AEs” value ([2]; human, in vivo) was 32 and the “patients who experienced SAEs” value ([2]; human, in vivo) was 52.0%. The “patients who experienced drug-related AEs (so in the source)” value ([2]; human, in vivo) was 36.0% and the “patients with ≥ 1 AE” value ([2]; human, in vivo) was 25 patients.

Reference: publication PMC8381505, “Phase 1 clinical trial of the PI3Kδ inhibitor YY-20394 in patients with B-cell hematological malignancies” (Journal of Hematology & Oncology, 2021)
